The values below come from patent US20240262845A1, “PYRIDINIUM SALTS, METHODS OF MAKING, AND METHODS OF USE” (UNIVERSITY OF WYOMING, priority 2023, published 2024).

SMILES strings stand for the structures. “Also recorded” adds a separate entry of the source. Counter-ions that a name gives are not always drawn.

One assay deals with HEK293T lysates. The assay can be described thus: Chemoproteomic profiling of HEK293T lysates (protein-level enrichment). It is filed as biochemical, human. The settings on record: for Western blot (streptavidin-HRP) proteome labeling profile of elutions: 0-100 μM probe, with/without light, before digestion; for number of proteins identified (from ≥2 unique peptides) showing ≥2-fold enrichment versus DMSO: about 100 μM probe, 5 mg/mL lysate, 60 min incubation, 20 min irradiation: 302 nm (1a), 320 nm (1b), 440 nm (2b). Here is the method:
In lysate tryptophan probe treatment for protein-level characterization: HEK293T cell pellets were suspended in native lysis buffer (50 mM HEPES pH 7.5, 150 mM sodium chloride (NaCl), 1.5 mM MgCl2, 1 mM DTT, 0.8% NP-40, 5% glycerol, and 1× protease inhibitors (Thermo)) at 2× the pellet volume. The samples were sonicated on ice for 30 seconds at 20% amplitude with a 2 second pulse ON and 3 second pulse OFF. Cell debris was removed by centrifugation at 20,000×g for 20 minutes at 4° C. Protein concentration was determined by bicinchoninic acid (BCA) (Pierce) and diluted down to 5 mg/mL with ChemProt buffer (50 mM HEPES pH 7.5, 150 mM NaCl, 1.5 mM MgCl2, 1 mM DTT, 0.4% NP-40, and 1x protease inhibitors (Thermo). 5 mg cell lysates were treated with 100× stocks of the tryptophan probes (pyridinium salts 1a, 1b, and 2b) to generate final concentrations (0, 1, 10, and 100 μM) in 1% DMSO. Lysates were incubated for 1 hour at 4° C. followed by photo-activation at respective wavelengths for 20 minutes at 4° C. Excess probe was removed using Sephadex G-25 PD-10 desalting columns (GE Healthcare) pre-equilibrated with 50 mM HEPES pH 7.5, 150 mM NaCl, 1.5 mM MgCl2, and 0.4% NP-40. The samples were then treated with 100 μL Neutravidin resin as a 50% slurry (Peirce). The samples were incubated overnight on a rotating apparatus at R.T. The following day, the beads were transferred to a MobiCol column (Boca Scientific), washed 3× with phosphate buffered saline (PBS) containing 0.2% SDS, washed 3× with PBS, and the enriched proteins were eluted with 2× NuPAGE lithium dodecyl sulfate (LDS) containing 10 mM DTT (Pierce) and heated for 30 minutes at 55° C. The eluent was collected and subsequently treated with 20 mM iodoacetamide (Pierce) for 30 minutes at R.T. protected from light. Samples were passed through detergent removal columns (Pierce) that were pre-equilibrated with 50 mM HEPES pH 8.0. The samples were treated with 2.5 μg Trypsin/LysC (Promega) at 37° C. for 16 hours. The following day, the sample was collected and prepped for isobaric labeling with TMT reagents (Thermo) as specified by the manufacturer.
Quantitative proteomics by two-dimensional nano liquid chromatography-tandem mass spectrometry (nLC-MS/MS): For protein-level characterization, the TMT-labeled sample were reconstituted in 0.1% formic acid (FA)/2% acetonitrile for offline high-pH reversed phase separation (RP10) using a Dionex UltiMate 3000 high-performance liquid chromatography (HPLC) system with fraction collection using Chromeleon v.6.8 (Thermo) software. Separation was achieved on a Waters Xbridge C18 3.5 μm 2.1×150 mm HPLC column (Waters) using a flow rate of 250 μL min-1 and the following ternary gradient and conditions: mobile phase A=water (HPLC grade), mobile phase B=acetonitrile (HPLC grade), and mobile phase C=200 mM ammonium acetate, pH 10. Mobile phase C is held at 10% throughout gradient. Starting conditions are 89% mobile phase A and 1% mobile phase B, ramping mobile phase B to 80% over 65 min. Fractions were collected in 96-well plates at 100 sec per well. Fractions were reduced down to 12 fractions, dried, and reconstituted in 0.1% FA/2% acetonitrile for nLC-MS/MS. All data were acquired using a Orbitrap Fusion Lumos coupled to an Easy-nLC 1200 nanoflow liquid chromatograph operating at 300 nL min-1. Peptides were cleaned up using a 1 cm online custom trap then eluted on a custom 20 cm laser pulled 75 μm column with C18 resin. Peptides were quantified using the synchronous precursor selection (SPS-MS3) or HCD method for TMT quantitation with 120k MS1 resolving power, 50 ms max injection time and 100% AGC. MS2 spectra were selected using the top ten most abundant features with a charge state between 2-6 using CID (collision induced dissociation) in the ion trap. The AGC was set to 100% with an isolation width of 0.7. MS3 was performed on the top 10 most abundant MS2 features between 400-1600 amu with a collision energy of 55%, AGC of 250%, and 50k resolution. […]

A further assay has as its target T1, lysozyme (Gallus gallus, UniProt P00698).
T1 construct: Lysozyme (from chicken egg white, >40,000 units/mg of protein); purchased Sigma Aldrich; host or cells: chicken egg white
The assay can be described thus: Photochemical labeling of lysozyme with pyridinium salts (General Procedure B, LC/MS). The settings on record: lysozyme labeling. It counts as biochemical, chicken. As to the method: General Procedure B: Photochemical Irradiation of Peptides and Proteins: To a 2 mL Pyrex LC/MS vial (Thermo model #03-391-39) were sequentially added solutions containing the desired biomolecule, glutathione (GSH), pyridinium salt, and ammonium acetate (NH4OAc). The resulting solution was diluted to a final volume of 500 μL and then sparged using nitrogen for a minimum of 30 minutes prior to irradiation. The actively sparging solution was then placed in an EvoluChem™ PhotoRedOx Box photoreactor that was equipped with a Kessil, PR160 427 nm LED Lamp and was then irradiated (100% lamp intensity) for the designated time at room temperature while maintaining active sparging. The resultant reaction mixture was then analyzed directly by LC/MS. Analysis of labeling outcomes using LC/MS was performed either by extracted ion chromatogram intensities (method A) or by integrating the area under the peaks associated with peptide content (method B). These values were totaled, and estimated percentages were assigned according to relative intensities of peaks or ion counts.
Labeling of Lysozyme with Pyridinium Salt 2a (Lysozyme-2a Conjugate). Labeling of lysozyme (14.3 kDa) with the pyridinium salt 2a was performed by following general procedure B using the following solutions: lysozyme (27 μL, 182 μM, 10 μM final concentration), pyridinium salt 2a (200 μL, 500 μM, 200 μM final concentration), NH4OAc (100 μL, 100 mM, pH=6.9, 20 mM final concentration), glutathione (15 μL, 10 mM, 300 μM final concentration), and water (158 μL) with a 100% intensity irradiation time of 60 minutes. The reaction mixture was analyzed directly by LC/MS using method A and was estimated to have proceeded in >95% conversion and a 10.9:1 mono:di labeled ratio and 10% glutathionylation of all unlabeled and labeled protein content was observed.
Labeling of Lysozyme with Pyridinium Salt 2b (Lysozyme-2b Conjugate). Labeling of lysozyme (14.3 kDa) with the pyridinium salt 2b was performed by following general procedure Busing the following solutions: lysozyme (19 μL, 262 μM, […]), 2b (181 μL, 554 μM, 200 μM final concentration), NH4OAc (50 μL, 200 mM, pH=6.9, 20 mM final concentration), glutathione (50 μL, 3 mM, 300 μM final concentration), and water (200 μL) with a 100% intensity irradiation time of 10 minutes. The reaction mixture was analyzed directly by LC/MS using method A and was estimated to have proceeded with 83% conversion. […]
Labeling of Lysozyme with Pyridinium Salt 2c (Lysozyme-2c Conjugate). […] The reaction mixture was analyzed directly by LC/MS using method A and was estimated to have proceeded with 85% conversion and a 3.7:1 mono:di labeled ratio and 10% glutathionylation of all protein content was observed. […]

T1 sequence (P00698 19-147): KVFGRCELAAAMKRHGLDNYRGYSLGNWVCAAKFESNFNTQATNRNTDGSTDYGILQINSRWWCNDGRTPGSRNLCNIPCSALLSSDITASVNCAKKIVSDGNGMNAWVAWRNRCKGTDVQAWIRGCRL

With `Cc1cc(C)[n+](N(C)C(=O)OCCCCC[C@@H]2SC[C@@H]3NC(=O)N[C@@H]32)c(C)c1` [pyridinium salt 1a, 2,4,6-trimethyl-1-(methyl(((5-((3aS,4S,6aR)-2-oxohexahydro-1H-thieno[3,4-d]imidazol-4-yl)pentyl)oxy)carbonyl)amino)pyridin-1-ium tetrafluoroborate], in the assay on HEK293T lysates, the “Western blot (streptavidin-HRP) proteome labeling profile of elutions” value is “concentration and optically dependent proteome labeling profiles; also recorded: loss of signal”; the “number of proteins identified (from ≥2 unique peptides) showing ≥2-fold enrichment versus DMSO” value was 185.

For the compound `Cc1cc(-c2ccccc2)cc(C)[n+]1N(C)C(=O)OCCCCC[C@@H]1SC[C@@H]2NC(=O)N[C@@H]21` [pyridinium salt 1b, 2,6-dimethyl-1-(methyl(((5-((3aS,4S,6aR)-2-oxohexahydro-1H-thieno[3,4-d]imidazole-4-yl)pentyl)oxy)carbonyl)amino)-4-phenylpyridin-1-ium tetrafluoroborate], in the assay on HEK293T lysates, the “Western blot (streptavidin-HRP) proteome labeling profile of elutions” value was “concentration and optically dependent proteome labeling profiles; also recorded: dose-response profiles”; the “number of proteins identified (from ≥2 unique peptides) showing ≥2-fold enrichment versus DMSO” value worked out at 365.

For the compound `COc1ccc2cc(-c3cc(C)[n+](N(C)C(=O)OCCCCCC[C@H]4NC(=O)N[C@H]4C)c(C)c3)ccc2c1` [pyridinium salt 2c, 4-(6-methoxynaphthalen-2-yl)-2,6-dimethyl-1-(methyl(((6-((4R,5S)-5-methyl-2-oxoimidazolidin-4-yl)hexyl)oxy)carbonyl)amino)pyridin-1-ium trifluoroacetate], the “labeling rate compared to pyridinium salt 2a” value on lysozyme is “enhanced rate”.
